In paper PMC7211882, “Controlled release of basic fibroblast growth factor from a peptide biomaterial for bone regeneration” (Royal Society Open Science, 2020) one finds intact peptide remaining data, which are given here for one compound.

The target of this series is T1, Proteinase K (Parengyodontium album, UniProt P06873).
T1 construct: purchased RayBiotech, Norcross, GA, USA
Briefly: Peptide degradation by proteinase K. The settings on record: proteinase K 0.05 mg ml^-1, 37°C, 4 h, D-RADA16 0.2 mg ml^-1, intact peptide by HPLC (C18), three replicates. It is filed as in vitro ADME. The method, then:
Proteinase K solution (RayBiotech, Norcross, GA, USA) (0.05 mg ml^−1) was added in D-RADA16 and nHA/PA66/D-RADA16 groups, respectively. All samples were incubated at 37°C, and 400 µl aliquots were removed at various time points (1, 2, 4, 6, 8, 12, 24 and 48 h). The enzymatic reaction was terminated by the addition of phenylmethanesulfonyl fluoride (working concentration: 0.1 to 1 mM) and the concentration of the intact peptide were analysed by HPLC (LCMS-2020; Shimadzu, Kyoto, Japan) under the following conditions: Venusil XBP C18, 5 µm, 4.6 × 50 mm (Agela, Tianjin, China); sample injection volume: 100 µl; gradient elution: A, 0.035% trifluoroacetic acid (TFA) in water; and B, 0.035% TFA in acetonitrile/water (80 : 20, vol/vol). A gradient of 10–100% B in 10 min was conducted. The experiment was conducted in three replicates.
Proteinase K, a highly non-specific proteolytic enzyme, was used to examine the stability of D-RADA16 in the various composites. The concentration of each D-RADA16 was set to 0.2 mg ml^−1. And after 4 h, only 30–40% of the peptide remained in the control samples, whereas over 50% of the peptide still remained in the experimental samples. Similar results were observed after 24 and 48 h (figure 1d).

The structures appear in SMILES notation.

T1 sequence (P06873 106-384): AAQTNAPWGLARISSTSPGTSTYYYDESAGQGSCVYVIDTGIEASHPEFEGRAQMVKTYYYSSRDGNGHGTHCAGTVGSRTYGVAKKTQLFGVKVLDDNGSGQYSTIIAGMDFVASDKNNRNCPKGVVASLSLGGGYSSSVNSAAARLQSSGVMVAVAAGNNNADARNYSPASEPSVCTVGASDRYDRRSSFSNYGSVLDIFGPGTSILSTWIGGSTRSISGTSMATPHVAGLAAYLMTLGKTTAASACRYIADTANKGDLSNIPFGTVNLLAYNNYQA

As to `CC(=O)N[C@H](CCCNC(=N)N)C(=O)N[C@H](C)C(=O)N[C@H](CC(=O)O)C(=O)N[C@H](C)C(=O)N[C@H](CCCNC(=N)N)C(=O)N[C@H](C)C(=O)N[C@H](CC(=O)O)C(=O)N[C@H](C)C(=O)N[C@H](CCCNC(=N)N)C(=O)N[C@H](C)C(=O)N[C@H](CC(=O)O)C(=O)N[C@H](C)C(=O)N[C@H](CCCNC(=N)N)C(=O)N[C@H](C)C(=O)N[C@H](CC(=O)O)C(=O)N[C@H](C)C(N)=O` [D-RADA16, Ac-RADARADARADARADA-CONH2], the intact peptide remaining is 30–40%.
